Measurements reported in patent US20050042293A1, “Polymeric systems for drug delivery and uses thereof” (The University of British Columbia, priority 1997, published 2005).
pIC50: −log10 of the molar value. Converted amounts (≈) assume the structure as drawn. Read-outs that look alike come from different tables or passages of the source.

Assays:
[1] = cited from earlier work
LNCaP cells [2] = assay: LNCaP cell proliferation in vitro (crystal violet, 492 nm absorbance); format: cell-based, human; settings: for % Growth: relative to control wells (100%)
Procedure: LNCap cells are human metastatic prostate adenocarcinoma cells that are used as a model for prostate cancer (see, e.g., Pousette et al., Prostate 31:198, 1997). In one study, LNCaP cells were seeded at concentrations of 2×10^3 and 1×10^3 cells/well in 96 well plates. […] After incubation, the cells were fixed with 1% glutaraldehyde solution, and stained for 5 minutes with 0.5% crystal violet. The dye was successively eluted with 100 μl of buffer solution and the absorbance was read on a Titertek Multiskan microplate reader using a wavelength of 492 nm absorbance. Cell growth was expressed as a percentage relative to control wells in the absence of the compound (set at 100%).

[3] = Water solubility studies by the present inventors
[4] = In vitro drug release from TB:MePEG350 pastes into PBS/albumin with octanol phase; format: physicochemical; settings: 10% drug-loaded TB:MePEG350 (40:60) paste
Procedure: Fifteen milligrams of each composition were placed in 20 mL glass scintillation vials and cooled to 4° C. to form uniform solid pellets. Five milliliters of ice cold phosphate-buffered saline (PBS; pH 7.4) containing 0.2% bovine serum albumin (Fraction 4, Boehringer Mannheim) were placed on top of the pellet followed by 5 mL of octanol (Fisher Scientific). The octanol formed an upper imiscible phase on top of the PBS so that any drug released into the PBS would partition into the octanol phase.
UV/VIS analysis was performed by determining the absorbance at the specified wavelength. Calibration graphs of the drugs in octanol were established by measuring the absorbance of a set of standards of each drug in octanol in the 0 to 50 μg/mL concentration range.

LNCaP cells [5] = assay: Apoptosis / DNA fragmentation assay in LNCaP cells; format: cell-based, human
[6] = single dose in humans; cited from earlier work
[7] = Drug-dependent solidification: time for paste pellets to break up under stirring at 300 rpm at 37° C.; format: physicochemical; settings: 10% w/w drug in 40:60 (TB:MePEG350) paste; 1 hour at 37° C. then 300 rpm
Procedure: Fifteen milligrams of each composition were placed in a 20 mL glass scintillation vial and cooled to 4° C. to form uniform solid pellets. Five milliliters of ice cold phosphate-buffered saline (PBS; pH 7.4) containing 0.2% bovine serum albumin (Fraction 4, Boehringer Mannheim) were placed on top of the pellet, and the vial was placed in a stationary position in a 37° C. oven for 1 hour. At this time, a stir bar was placed in the vial and stirring was commenced at 300 rpm until the paste pellet disintegrated.

C[C@@H]1C[C@H]2[C@@H]3CCC4=CC(=O)C=C[C@]4(C)[C@@]3(F)[C@@H](O)C[C@]2(C)[C@@]1(O)C(=O)CO [Dexamethasone]
solubility in water ([1]; water): 10 µg/mL (≈ 25.5 µM)

CC[C@@]1(O)C(=O)OCc2c1cc1n(c2=O)Cc2cc3ccccc3nc2-1 [Camptothecin]
percentage of cells to which the drug was toxic (LNCaP cells [2]; 0.001 nM): over 60% | 492 nm Absorbance (LNCaP cells [2]; 0.001 nM, 5 days): 0.169 ± 0.05 | % Growth (LNCaP cells [2]; 0.001 nM, 5 days): 36% | 492 nm Absorbance (LNCaP cells [2]; 0.05 nM, 5 days): 0.14 ± 0.04 | % Growth (LNCaP cells [2]; 0.05 nM, 5 days): 29% | 492 nm Absorbance (LNCaP cells [2]; 0.1 nM, 5 days): 0.10 ± 0.02 | % Growth (LNCaP cells [2]; 0.1 nM, 5 days): 21% | 492 nm Absorbance (LNCaP cells [2]; 1 nM, 5 days): 0.10 ± 0.02 | % Growth (LNCaP cells [2]; 1 nM, 5 days): 21% | 492 nm Absorbance (LNCaP cells [2]; 10 nM, 5 days): 0.088 ± 0.02 | % Growth (LNCaP cells [2]; 10 nM, 5 days): 17% | 492 nm Absorbance (LNCaP cells [2]; 100 nM, 5 days): 0.038 ± 0.01 | % Growth (LNCaP cells [2]; 100 nM, 5 days): 8% | IC50 against LNCaP cells (in words) (LNCaP cells [2]; inferred from Table 12): femtomolar concentration range | solubility in water ([1]; water): 1 to 2 µg/mL | solubility in water (in words) ([1]; water): insoluble in water | solubility ([3]; water): < 2 µg/mL

C[C@@H]1[C@H](O)[C@@H](C)/C=C/C=C/C=C/C=C/C=C/C=C/C=C/[C@H](O[C@@H]2O[C@H](C)[C@@H](O)[C@H](N)[C@@H]2O)C[C@@H]2O[C@](O)(C[C@@H](O)C[C@@H](O)[C@H](O)CC[C@@H](O)C[C@@H](O)CC(=O)O[C@H]1C)C[C@H](O)[C@H]2C(=O)O [Amphotericin]
solubility in water (in words) ([1]; water at pH 6 to 7): insoluble in water | solubility in water (in words) ([1]; water): insoluble in water | solubility (physchem; water): < 2 µg/mL

CC1=C(/C=C/C(C)=C/C=C/C(C)=C/C(=O)O)C(C)(C)CCC1 [Tretinoin]
solubility in water (in words) ([1]; water): practically insoluble in water | solubility in water (in words) ([1]; water, listed as tretinoin): insoluble in water | solubility (physchem; water): < 2 µg/mL

O=c1c(-c2ccc(O)cc2)coc2cc(O)cc(O)c12 [Genistein]
total encapsulated drug released ([4]; by day 7): 50% | solubility in water (in words) ([1]; water): practically insoluble in water | solubility in water (in words) ([1]; water, listed as genistein): insoluble in water | water solubility ([3]; water): approximately 1 μg/mL | solubility ([3]; water, water solubility): < 2 µg/mL

C[C@H]1C[C@H]2[C@@H]3CCC4=CC(=O)C=C[C@]4(C)[C@@]3(F)[C@@H](O)C[C@]2(C)[C@@]1(O)C(=O)CO [Betamethasone]
solubility in water ([1]; water): 190 µg/mL (≈ 484 µM)

CC(=O)O[C@H]1C(=O)[C@@]2(C)[C@H]([C@H](OC(=O)c3ccccc3)[C@]3(O)C[C@H](OC(=O)[C@H](O)[C@@H](NC(=O)c4ccccc4)c4ccccc4)C(C)=C1C3(C)C)[C@]1(OC(C)=O)CO[C@@H]1C[C@@H]2O [Paclitaxel]
492 nm Absorbance (LNCaP cells [2]; 0.001 nM, 5 days): 0.049 ± 0.05 | % Growth (LNCaP cells [2]; 0.001 nM, 5 days): 100% | 492 nm Absorbance (LNCaP cells [2]; 0.01 nM, 5 days): 0.40 ± 0.03 | % Growth (LNCaP cells [2]; 0.01 nM, 5 days): 81% | 492 nm Absorbance (LNCaP cells [2]; 0.05 nM, 5 days): 0.36 ± 0.02 | % Growth (LNCaP cells [2]; 0.05 nM, 5 days): 73% | 492 nm Absorbance (LNCaP cells [2]; 0.1 nM, 5 days): 0.20 ± 0.03 | % Growth (LNCaP cells [2]; 0.1 nM, 5 days): 40% | 492 nm Absorbance (LNCaP cells [2]; 1 nM, 5 days): 0.025 ± 0.01 | % Growth (LNCaP cells [2]; 1 nM, 5 days): 5% | 492 nm Absorbance (LNCaP cells [2]; 10 nM, 5 days): 0.027 ± 0.01 | % Growth (LNCaP cells [2]; 10 nM, 5 days): 5% | 492 nm Absorbance (LNCaP cells [2]; 100 nM, 5 days): 0.033 ± 0.01 | % Growth (LNCaP cells [2]; 100 nM, 5 days): 6% | lowest concentration causing inhibition of LNCaP cell growth (LNCaP cells [2]; 5 days): 10 pM | pIC50 (LNCaP cells [2]; Homo sapiens, LNCaP, 120 h, 5 days incubation, read-out: IC50, LNCaP cell growth): ~10.05 | DNA fragmentation (gel electrophoresis) (LNCaP cells [5]; 100 nM, 18 hours of treatment): induced DNA fragmentation | apoptosis by optical microscopy (LNCaP cells [5]; paclitaxel treated cells, intracellular apoptotic bodies): clear evidence of apoptosis | solubility in water ([1]; water): 1 to 2 µg/mL | solubility in water (in words) ([1]; water): insoluble in water | toxic limit [6]: 200 mg | solubility (physchem; water): < 2 µg/mL

COc1cc2c(c(OC)c1OC)-c1ccc(OC)c(=O)cc1[C@@H](NC(C)=O)CC2 [colchicine]
time paste pellet stayed intact under stirring [7]: 2.5 min | solubility ([3]; pH 7.4, aqueous buffer, water solubility in PBS/albumin, PBS/albumin (pH 7.4)): > 500 µg/mL

O=C1c2c(O)cccc2Cc2cccc(O)c21 [Anthralin]
solubility in water (in words) ([1]; water): practically insoluble in water

COc1ccc2c(c1)c(CC(=O)O)c(C)n2C(=O)c1ccc(Cl)cc1 [Indomethacin]
solubility in water (in words) ([1]; water): practically insoluble in water

C[C@@H]1[C@H](O)[C@@H](C)/C=C/C=C/CC/C=C/C=C/C=C/C=C/C(O[C@H]2O[C@H](C)[C@@H](O)[C@H](N)[C@@H]2O)CC2O[C@](O)(CC(O)C(O)CCC(O)CC(O)CC(O)CC(=O)O[C@H]1C)CC(O)C2C(=O)O (some centres unmarked) [nystatin]
solubility in water (in words) ([1]; water): insoluble in water

CN(Cc1cnc2nc(N)nc(N)c2n1)c1ccc(C(=O)N[C@@H](CCC(=O)O)C(=O)O)cc1 [methotrexate]
disintegration time under stirring [7]: 30 s | encapsulated drug released ([4]; first 24 hours): almost all the encapsulated drug | solubility (physchem; pH 7.4, aqueous buffer): > 500 µg/mL

COc1cc(/C=C/C(=O)CC(=O)/C=C/c2ccc(O)c(OC)c2)ccc1O [Curcumin]
solubility in water (in words) ([1]; water): practically insoluble in water | solubility (physchem; water): < 2 µg/mL
